T1: CheA WT (Tm CheA) (Thermotoga maritima, UniProt Q56310)
T1 sequence (Q56310 1-671): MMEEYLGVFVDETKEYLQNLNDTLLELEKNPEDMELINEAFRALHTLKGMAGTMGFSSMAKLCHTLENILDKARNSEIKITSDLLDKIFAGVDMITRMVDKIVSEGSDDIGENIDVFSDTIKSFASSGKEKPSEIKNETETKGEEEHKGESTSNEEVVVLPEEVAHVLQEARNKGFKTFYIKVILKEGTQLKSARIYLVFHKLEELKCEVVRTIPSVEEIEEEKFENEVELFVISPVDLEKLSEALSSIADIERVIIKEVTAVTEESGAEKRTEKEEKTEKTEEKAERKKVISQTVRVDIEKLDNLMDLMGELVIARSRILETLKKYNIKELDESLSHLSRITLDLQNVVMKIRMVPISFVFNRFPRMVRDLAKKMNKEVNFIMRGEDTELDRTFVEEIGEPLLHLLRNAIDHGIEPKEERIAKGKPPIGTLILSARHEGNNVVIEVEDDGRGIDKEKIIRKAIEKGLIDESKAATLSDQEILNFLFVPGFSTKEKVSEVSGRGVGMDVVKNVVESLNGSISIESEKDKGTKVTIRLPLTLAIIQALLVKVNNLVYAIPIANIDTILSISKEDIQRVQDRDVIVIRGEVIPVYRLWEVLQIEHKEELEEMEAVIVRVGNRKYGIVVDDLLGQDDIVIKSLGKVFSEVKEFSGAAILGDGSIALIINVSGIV


Key:
[1] = target: T1, CheA WT (Tm CheA); assay: TNP-ATP displacement, fluorescence; assay type: binding
[2] = target: the molecule itself; assay: SEC + other: SAXS

IC50 [1] [µM] | Molecule | stoichiometry N [2]
405 ± 21 | Nc1ncnc2c1ncn2[C@@H]1O[C@H](COP(=O)(O)OP(=O)(O)O)[C@@H](O)[C@H]1O [ADP] | –
– | Thermotoga maritima CheA WT (enzyme, UniProt Q56310 1-671, looked up) MMEEYLGVFVDETKEYLQNLNDTLLELEKNPEDMELINEAFRALHTLKGMAGTMGFSSMAKLCHTLENILDKARNSEIKITSDLLDKIFAGVDMITRMVDKIVSEGSDDIGENIDVFSDTIKSFASSGKEKPSEIKNETETKGEEEHKGESTSNEEVVVLPEEVAHVLQEARNKGFKTFYIKVILKEGTQLKSARIYLVFHKLEELKCEVVRTIPSVEEIEEEKFENEVELFVISPVDLEKLSEALSSIADIERVIIKEVTAVTEESGAEKRTEKEEKTEKTEEKAERKKVISQTVRVDIEKLDNLMDLMGELVIARSRILETLKKYNIKELDESLSHLSRITLDLQNVVMKIRMVPISFVFNRFPRMVRDLAKKMNKEVNFIMRGEDTELDRTFVEEIGEPLLHLLRNAIDHGIEPKEERIAKGKPPIGTLILSARHEGNNVVIEVEDDGRGIDKEKIIRKAIEKGLIDESKAATLSDQEILNFLFVPGFSTKEKVSEVSGRGVGMDVVKNVVESLNGSISIESEKDKGTKVTIRLPLTLAIIQALLVKVNNLVYAIPIANIDTILSISKEDIQRVQDRDVIVIRGEVIPVYRLWEVLQIEHKEELEEMEAVIVRVGNRKYGIVVDDLLGQDDIVIKSLGKVFSEVKEFSGAAILGDGSIALIINVSGIV | 2
